Holding throughout (type): cell-based
Experiment [1] concerns the target T1, rNaV1.4 (Rattus norvegicus, UniProt P15390).
T1 construct: gene Scn4a; recombinant rNaV1.4 channel stably expressed in HEK 293 cells
Kind of experiment: automated patch clamp (IonFlux Mercury), […]; inhibition of pulse #[…] peak current at […].

Experiment [2] has as its target T1, rNaV1.4. The experiment is described as follows: automated patch clamp (IonFlux Mercury), […].
In experiment [3] the target is T1, rNaV1.4. The experiment is described as follows: automated patch clamp (IonFlux Mercury ensemble recording; Port-a-Patch single-cell validation), […]. In general terms: Patch clamp records ionic current or voltage across a cell membrane.
Experiment [4] addresses T1, rNaV1.4. The description is as above. This is another data set of the same source.

Where two headings read alike, the source gives them in different places.

As usually defined, the inhibition is the drop in the measured response relative to a control, in per cent.

T1 sequence (P15390 whole entry): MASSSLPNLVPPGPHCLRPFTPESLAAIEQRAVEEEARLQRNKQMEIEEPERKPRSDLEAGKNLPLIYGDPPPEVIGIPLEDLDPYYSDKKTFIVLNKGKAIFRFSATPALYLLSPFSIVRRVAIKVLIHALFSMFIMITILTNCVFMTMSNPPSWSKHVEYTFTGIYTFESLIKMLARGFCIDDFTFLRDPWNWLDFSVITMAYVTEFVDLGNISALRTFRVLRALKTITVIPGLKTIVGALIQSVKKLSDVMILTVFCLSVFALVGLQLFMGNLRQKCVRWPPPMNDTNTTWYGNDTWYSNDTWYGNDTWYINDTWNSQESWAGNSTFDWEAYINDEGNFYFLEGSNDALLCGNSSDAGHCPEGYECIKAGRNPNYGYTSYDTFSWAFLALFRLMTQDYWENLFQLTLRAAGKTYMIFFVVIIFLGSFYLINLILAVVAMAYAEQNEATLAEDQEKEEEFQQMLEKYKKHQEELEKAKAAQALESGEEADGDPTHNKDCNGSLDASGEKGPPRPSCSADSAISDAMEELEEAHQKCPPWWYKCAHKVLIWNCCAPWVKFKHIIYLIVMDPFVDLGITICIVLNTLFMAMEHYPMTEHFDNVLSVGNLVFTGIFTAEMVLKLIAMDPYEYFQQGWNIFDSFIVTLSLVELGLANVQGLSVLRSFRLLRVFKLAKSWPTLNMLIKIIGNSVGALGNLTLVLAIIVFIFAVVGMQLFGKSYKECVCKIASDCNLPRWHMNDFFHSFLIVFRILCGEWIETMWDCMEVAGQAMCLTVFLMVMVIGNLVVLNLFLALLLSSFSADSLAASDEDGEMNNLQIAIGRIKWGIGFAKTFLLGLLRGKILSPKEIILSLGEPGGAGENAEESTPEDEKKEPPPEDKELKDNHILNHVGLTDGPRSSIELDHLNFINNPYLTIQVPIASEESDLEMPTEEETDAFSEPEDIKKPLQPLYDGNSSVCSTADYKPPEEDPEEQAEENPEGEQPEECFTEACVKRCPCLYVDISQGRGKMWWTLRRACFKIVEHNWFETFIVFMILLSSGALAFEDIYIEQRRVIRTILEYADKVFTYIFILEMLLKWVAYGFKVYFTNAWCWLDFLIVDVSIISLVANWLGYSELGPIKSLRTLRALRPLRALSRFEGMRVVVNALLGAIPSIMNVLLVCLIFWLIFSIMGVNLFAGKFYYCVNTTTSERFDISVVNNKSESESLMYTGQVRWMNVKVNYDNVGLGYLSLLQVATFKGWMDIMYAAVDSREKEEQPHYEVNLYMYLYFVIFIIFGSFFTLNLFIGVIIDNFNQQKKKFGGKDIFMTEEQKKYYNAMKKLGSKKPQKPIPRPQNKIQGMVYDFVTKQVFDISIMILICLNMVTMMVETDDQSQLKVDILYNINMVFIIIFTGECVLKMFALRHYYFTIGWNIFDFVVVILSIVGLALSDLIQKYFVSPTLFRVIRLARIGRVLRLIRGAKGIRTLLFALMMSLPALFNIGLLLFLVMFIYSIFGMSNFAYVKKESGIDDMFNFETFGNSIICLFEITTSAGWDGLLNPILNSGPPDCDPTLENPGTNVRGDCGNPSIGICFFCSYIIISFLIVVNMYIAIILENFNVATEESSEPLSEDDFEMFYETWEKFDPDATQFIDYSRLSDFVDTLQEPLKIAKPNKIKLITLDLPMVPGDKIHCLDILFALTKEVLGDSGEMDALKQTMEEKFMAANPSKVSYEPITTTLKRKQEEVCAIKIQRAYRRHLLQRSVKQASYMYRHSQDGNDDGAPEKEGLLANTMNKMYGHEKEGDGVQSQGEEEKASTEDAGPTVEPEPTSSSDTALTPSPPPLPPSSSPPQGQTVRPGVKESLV

In turn, `CN(C)CCCN1c2ccccc2CCc2ccccc21` [imipramine] yielded an inhibition at 30 µM against rNaV1.4 [1] of 50 to 55%.

With `CN(C)CCCN1c2ccccc2Sc2ccc(Cl)cc21` [chlorpromazine], the “automated patch clamp (IonFlux Mercury), 10 and 30 μM” value at rNaV1.4 [2] is listed as “inhibition by chlorpromazine was not much relieved throughout the whole 17-pulse sweep”.

`CCN(CC)CC(=O)Nc1c(C)cccc1C` [lidocaine]: the “automated patch clamp (IonFlux Mercury ensemble recording); Port-a-Patch single-c” value on rNaV1.4 [3] is given as “lidocaine caused a slowing of the fast time constant of recovery, which was moderate at lower concentrations”.

Regarding `Nc1nc2ccc(OC(F)(F)F)cc2s1` [riluzole], the “automated patch clamp (IonFlux Mercury ensemble recording); Port-a-Patch single-c” value on rNaV1.4 [4] is listed as “riluzole caused no change in either the contribution or the value of the slow time constant but caused a radical”.
